Measurements published in patent US20250340560A1, “SUBSTITUTED PYRAZOLO[1,5-a]PYRIMIDINES AS BRUTON'S TYROSINE KINASE MODULATORS” (BEIGENE SWITZERLAND GMBH, priority 2013, published 2025).
Structures can show the parent of a compound that is named as a salt.

Target: Recombinant Btk (Homo sapiens (Human), UniProt Q06187)
Test: BTK kinase assay (TR-FRET)
Conditions: read-out: IC50 (nM) Btk; 1 hour pre-incubation, ATP at Km

Sequence of Recombinant Btk (Q06187 whole entry): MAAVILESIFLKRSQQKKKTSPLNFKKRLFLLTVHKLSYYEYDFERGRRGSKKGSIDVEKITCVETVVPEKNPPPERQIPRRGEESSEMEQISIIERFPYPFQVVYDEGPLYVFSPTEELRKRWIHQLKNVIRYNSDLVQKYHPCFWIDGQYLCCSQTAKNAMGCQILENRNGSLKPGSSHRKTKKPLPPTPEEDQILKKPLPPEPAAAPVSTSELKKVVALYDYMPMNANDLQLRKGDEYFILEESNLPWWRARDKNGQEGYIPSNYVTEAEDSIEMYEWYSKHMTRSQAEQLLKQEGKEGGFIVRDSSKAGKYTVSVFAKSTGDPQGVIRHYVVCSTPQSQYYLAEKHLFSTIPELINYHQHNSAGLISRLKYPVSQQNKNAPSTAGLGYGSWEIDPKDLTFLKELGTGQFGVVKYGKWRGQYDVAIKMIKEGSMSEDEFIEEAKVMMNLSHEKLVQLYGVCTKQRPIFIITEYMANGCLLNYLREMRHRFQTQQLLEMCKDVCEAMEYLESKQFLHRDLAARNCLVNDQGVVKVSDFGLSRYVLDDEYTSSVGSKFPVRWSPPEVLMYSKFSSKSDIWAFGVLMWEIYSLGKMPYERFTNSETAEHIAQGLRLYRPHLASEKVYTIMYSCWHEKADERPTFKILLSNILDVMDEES

Structure (SMILES)	IC50
NC(=O)c1c(-c2ccc(Oc3ccccc3)cc2)nn2c1NCC1(CNC1)C2 [Compound 87, 2′-(4-Phenoxyphenyl)-5′,7′-dihydro-4′H-spiro[azetidine-3,6′-pyrazolo[1,5-a]pyrimidine]-3′-carboxamide]	2000 nM
C=CC(=O)N1CC2(CNc3c(C(N)=O)c(-c4ccc(Oc5ccccc5)cc4)nn3C2)C1 [Compound 88, 1-Acryloyl-2′-(4-phenoxyphenyl)-5′,7′-dihydro-4′H-spiro[azetidine-3,6′-pyrazolo[1,5-a]pyrimidine]-3′-carboxamide]	16 nM
NC(=O)c1c(-c2ccc(Oc3ccccc3)cc2)nn2c1NCC(c1ccccc1N)C2 (stereo not drawn) [Compound 89, 6-(2-Aminophenyl)-2-(4-phenoxyphenyl)-4,5,6,7-tetrahydropyrazolo[1,5-a]pyrimidine-3-carboxamide]	> 10000 nM
NC(=O)c1c(-c2ccc(Oc3ccccc3)cc2)nn2c1NCC(c1cccc(N)c1)C2 (stereo not drawn) [Compound 90, 6-(3-Aminophenyl)-2-(4-phenoxyphenyl)-4,5,6,7-tetrahydropyrazolo[1,5-a]pyrimidine-3-carboxamide]	1900 nM
CN(C)CCOc1cccc(C2CNc3c(C(N)=O)c(-c4ccc(Oc5ccccc5)cc4)nn3C2)c1 (stereo not drawn) [Compound 91, 6-(3-(2-(Dimethylamino)ethoxy)phenyl)-2-(4-phenoxyphenyl)-4,5,6,7-tetrahydropyrazolo[1,5-a]pyrimidine-3-carboxamide]	1900 nM
CN(C)C/C=C/C(=O)Nc1ccccc1C1CCNc2c(C(N)=O)c(-c3ccc(Oc4ccccc4)cc3)nn21 (stereo not drawn) [Compound 92, (E)-7-(2-(4-(dimethylamino)but-2-enamido)phenyl)-2-(4-phenoxyphenyl)-4,5,6,7-tetrahydropyrazolo[1,5-a]pyrimidine-3-carboxamide]	1.1 nM
COc1ccc(-c2nn3c(c2C(N)=O)NCCC3c2ccccc2N)cc1 (stereo not drawn) [Compound 93, 7-(2-Aminophenyl)-2-(4-methoxyphenyl)-4,5,6,7-tetrahydropyrazolo[1,5-a]pyrimidine-3-carboxamide]	1500 nM
NC(=O)c1c(-c2ccc(Oc3ccccc3)cc2)nn2c1NCCC2c1cc(N)ccc1Cl (stereo not drawn) [Compound 95, 7-(5-amino-2-chlorophenyl)-2-(4-phenoxyphenyl)-4,5,6,7-tetrahydropyrazolo[1,5-a]pyrimidine-3-carboxamide]	470 nM
C=CC(=O)Nc1ccc(Cl)c(C2CCNc3c(C(N)=O)c(-c4ccc(Oc5ccccc5)cc4)nn32)c1 (stereo not drawn) [Compound 96, 7-(5-acrylamido-2-chlorophenyl)-2-(4-phenoxyphenyl)-4,5,6,7-tetrahydropyrazolo[1,5-a]pyrimidine-3-carboxamide]	30 nM
C=CC(=O)Nc1cc(C2CCNc3c(C(N)=O)c(-c4ccc(Oc5ccccc5)cc4)nn32)ccc1Cl (stereo not drawn) [Compound 97, 7-(3-acrylamido-4-chlorophenyl)-2-(4-phenoxyphenyl)-4,5,6,7-tetrahydropyrazolo[1,5-a]pyrimidine-3-carboxamide]	1.1 nM
NC(=O)c1c(-c2ccc(Oc3ccccc3)cc2)nn2c1NCCC2c1ccc(N)cc1 (stereo not drawn) [Compound 98, 7-(4-aminophenyl)-2-(4-phenoxyphenyl)-4,5,6,7-tetrahydropyrazolo[1,5-a]pyrimidine-3-carboxamide]	77 nM
NC(=O)c1c(-c2ccc(Oc3ccccc3)cc2)nn2c1NCCC2c1ccncc1 (stereo not drawn) [Compound 100, 2-(4-phenoxyphenyl)-7-(pyridin-4-yl)-4,5,6,7-tetrahydropyrazolo[1,5-a]pyrimidine-3-carboxamide]	260 nM
NC(=O)c1c(-c2ccc(Oc3ccccc3)cc2)nn2c1NCCC2c1cccnc1 (stereo not drawn) [Compound 101, 2-(4-phenoxyphenyl)-7-(pyridin-3-yl)-4,5,6,7-tetrahydropyrazolo[1,5-a]pyrimidine-3-carboxamide]	550 nM
NC(=O)c1c(-c2ccc(Oc3ccccc3)cc2)nn2c1NCCC2c1ccccn1 (stereo not drawn) [Compound 102, 2-(4-phenoxyphenyl)-7-(pyridin-2-yl)-4,5,6,7-tetrahydropyrazolo[1,5-a]pyrimidine-3-carboxamide]	830 nM
C=CC(=O)N1CCCC1C1CCNc2c(C(N)=O)c(-c3ccc(Oc4ccccc4)cc3)nn21 (stereo not drawn) [Compound 103, 7-(1-acryloylpyrrolidin-2-yl)-2-(4-phenoxyphenyl)-4,5,6,7-tetrahydropyrazolo[1,5-a]pyrimidine-3-carboxamide]	1.1 nM
C=CC(=O)N1CC(C2CCNc3c(C(N)=O)c(-c4ccc(OCc5ccccc5)cc4)nn32)C1 (stereo not drawn) [Compound 104, 7-(1-acryloylazetidin-3-yl)-2-(4-(benzyloxy)phenyl)-4,5,6,7-tetrahydropyrazolo[1,5-a]pyrimidine-3-carboxamide]	2.6 nM
C=CC(=O)N1CC(C2CCNc3c(C(N)=O)c(-c4ccc(OCc5ccccn5)cc4)nn32)C1 (stereo not drawn) [Compound 105, 7-(1-acryloylazetidin-3-yl)-2-(4-(pyridin-2-ylmethoxy)phenyl)-4,5,6,7-tetrahydropyrazolo[1,5-a]pyrimidine-3-carboxamide]	18 nM
C=CC(=O)N1CC(C2CCNc3c(C(N)=O)c(-c4ccc(Oc5ccc(Cl)cc5)cc4)nn32)C1 (stereo not drawn) [Compound 106, 7-(1-acryloylazetidin-3-yl)-2-(4-(4-chlorophenoxy)phenyl)-4,5,6,7-tetrahydropyrazolo[1,5-a]pyrimidine-3-carboxamide]	1.4 nM

Structure (SMILES)	IC50
C=CC(=O)N1CC(C2CCNc3c(C(N)=O)c(-c4ccc(Oc5cccc(Cl)c5)cc4)nn32)C1 (stereo not drawn) [Compound 107, 7-(1-acryloylazetidin-3-yl)-2-(4-(3-chlorophenoxy)phenyl)-4,5,6,7-tetrahydropyrazolo[1,5-a]pyrimidine-3-carboxamide]	0.48 nM
C=CC(=O)NCC1CCNc2c(C(N)=O)c(-c3ccc(OCc4ccccc4)cc3)nn21 (stereo not drawn) [Compound 111, 7-(acrylamidomethyl)-2-(4-(benzyloxy)phenyl)-4,5,6,7-tetrahydropyrazolo[1,5-a]pyrimidine-3-carboxamide]	24 nM
NCC1CCNc2c(C(N)=O)c(-c3ccc(OCC4CC4)cc3)nn21 (stereo not drawn) [Compound 112, 7-(aminomethyl)-2-(4-(cyclopropylmethoxy)phenyl)-4,5,6,7-tetrahydropyrazolo[1,5-a]pyrimidine-3-carboxamide]	> 10000 nM
C=CC(=O)NCC1CCNc2c(C(N)=O)c(-c3ccc(OCC4CC4)cc3)nn21 (stereo not drawn) [Compound 113, 7-(acrylamidomethyl)-2-(4-(cyclopropylmethoxy)phenyl)-4,5,6,7-tetrahydropyrazolo[1,5-a]pyrimidine-3-carboxamide]	94 nM
NC(=O)c1c(-c2ccc(Oc3ccccc3)cc2)nn2c1NCCC21CNC1 [Compound 118, 2′-(4-phenoxyphenyl)-5′,6′-dihydro-4′H-spiro[azetidine-3,7′-pyrazolo[1,5-a]pyrimidine]-3′-carboxamide]	410 nM
C=CC(=O)N1CC2(CCNc3c(C(N)=O)c(-c4ccc(Oc5ccccc5)cc4)nn32)C1 [Compound 119, 1-acryloyl-2′-(4-phenoxyphenyl)-5′,6′-dihydro-4′H-spiro[azetidine-3,7′-pyrazolo[1,5-a]pyrimidine]-3′-carboxamide]	40 nM
NC(=O)c1c(-c2ccc(Oc3ccccc3)cc2)nn2c3c([nH]c12)CCNCC3 [Compound 120]	180 nM
CN(C)C/C=C/C(=O)N1CCc2[nH]c3c(C(N)=O)c(-c4ccc(Oc5ccccc5)cc4)nn3c2CC1 [Compound 122]	0.78 nM
CN(C)C/C=C/C(=O)N1CCCc2[nH]c3c(C(N)=O)c(-c4ccc(Oc5ccccc5)cc4)nn3c2C1 [Compound 124, (E)-8-(4-(dimethylamino)but-2-enoyl)-2-(4-phenoxyphenyl)-4,5,6,7,8,9-hexahydropyrazolo[5′,1′:2,3]imidazo[4,5-c]azepine-3-carboxamide]	0.62 nM
NC(=O)c1c(-c2ccc(OCc3ccccc3)cc2)nn2c3c([nH]c12)CCNC3 [Compound 125, 2-(4-(benzyloxy)phenyl)-5,6,7,8-tetrahydro-4H-pyrazolo[5′,1′:2,3]imidazo[4,5-c]pyridine-3-carboxamide formate]	5000 nM
C=CC(=O)N1CCc2[nH]c3c(C(N)=O)c(-c4ccc(OCc5ccccc5)cc4)nn3c2C1 [Compound 126, 7-Acryloyl-2-(4-(benzyloxy)phenyl)-5,6,7,8-tetrahydro-4H-pyrazolo[5′,1′:2,3]imidazo[4,5-c]pyridine-3-carboxamide]	20 nM
C=CC(=O)N1CCc2[nH]c3c(C(N)=O)c(-c4ccc(OCC5CC5)cc4)nn3c2C1 [Compound 127, 7-acryloyl-2-(4-(cyclopropylmethoxy)phenyl)-5,6,7,8-tetrahydro-4H-pyrazolo[5′,1′:2,3]imidazo[4,5-c]pyridine-3-carboxamide]	300 nM
NC(=O)c1c(-c2ccc(Oc3ccccc3)cc2)nn2c1[nH]c1cc([N+](=O)[O-])ccc12 [Compound 128, 6-nitro-2-(4-phenoxyphenyl)-4H-benzo[4,5]imidazo[1,2-b]pyrazole-3-carboxamide]	930 nM
NC(=O)c1c(-c2ccc(Oc3ccccc3)cc2)nn2c1[nH]c1cc(N)ccc12 [Compound 129]	23 nM
NC(=O)c1c(-c2ccc(Oc3ccccc3)cc2)nn2c1[nH]c1cccc(N)c12 [Compound 131, 8-amino-2-(4-phenoxyphenyl)-4H-benzo[4,5]imidazo[1,2-b]pyrazole-3-carboxamide]	170 nM
C=CC(=O)N1CC(C2CCNc3c(C(N)=O)c(-c4ccc(Oc5ccc(Cl)c(Cl)c5)cc4)nn32)C1 (stereo not drawn) [Compound 132, 7-(1-acryloylazetidin-3-yl)-2-(4-(3,4-dichlorophenoxy)phenyl)-4,5,6,7-tetrahydropyrazolo[1,5-a]pyrimidine-3-carboxamide]	1.7 nM
C=CC(=O)N1CC(C2CCNc3c(C(N)=O)c(-c4ccc(Oc5ccccc5C#N)cc4)nn32)C1 (stereo not drawn) [Compound 135, 7-(1-acryloylazetidin-3-yl)-2-(4-(2-cyanophenoxy)phenyl)-4,5,6,7-tetrahydropyrazolo[1,5-a]pyrimidine-3-carboxamide]	0.38 nM
C=CC(=O)Nc1ccccc1C1CCNc2c(C(N)=O)c(-c3ccc(F)c(F)c3)nn21 (stereo not drawn) [Compound 137, 7-(2-acrylamidophenyl)-2-(3,4-difluorophenyl)-4,5,6,7-tetrahydropyrazolo[1,5-a]pyrimidine-3-carboxamide]	3.2 nM
